# Reference: US7148193B2, “Compounds that bind to growth hormone receptor” (Antyra, Inc., priority 1997, dated 2006)
# Changes are numbered by the printed parent chain. Where a SMILES comes first, the peptide text is derived from it. Bridges are numbered along the chain shown (N, C = ends).
# Key:
# ‘hu’ GHBP = target: T1, ‘hu’ GHBP (Rattus norvegicus, UniProt P16310, L61R); experiment: Species specificity of binding by ELISA and BIAcore, 'hu' GHBP; details: in words
# T1 construct: 1–48 of GHBP; The 3′ oligo used for this reaction encoded the mutation L43R (CTG→AGA); The second PCR reaction amplified the DNA encoding amino acids 38–260; 6xHis; made in house
# T1 sequence (P16310 19-278 isoform P16310-2 L61R): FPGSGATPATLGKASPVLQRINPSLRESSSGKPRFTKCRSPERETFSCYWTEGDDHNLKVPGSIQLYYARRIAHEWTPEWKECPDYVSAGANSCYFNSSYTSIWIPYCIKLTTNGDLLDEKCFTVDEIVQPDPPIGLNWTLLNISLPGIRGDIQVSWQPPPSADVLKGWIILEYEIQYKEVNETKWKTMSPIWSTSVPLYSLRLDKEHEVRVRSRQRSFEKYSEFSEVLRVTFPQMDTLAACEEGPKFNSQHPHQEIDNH
# Procedure: Wells were coated with either recombinant rGHBP or ‘hu’ GHBP (100 ng/well). Additions of H5 (SEQ ID NO:8) and H10 (SEQ ID NOS:9, 80, and 81) phage (10^10/well) and detection were made as described. […] Streptavidin chips were coated with H5 (SEQ ID NO:8) to 1100 RU as described and rGHBP or ‘hu’ GHBP (500 μg/ml) injected as 30 μl samples.
# Growth hormone receptors from different species bind human GH as well as their own GH, however human GHR only binds human or monkey GH. […] The sequence of rGHBP was altered by PCR to create a “humanized” version (‘hu’ GHBP; FIG. 9A). Partially purified ‘hu’GHBP (FIG. 9B) was tested for binding using ELISA and BIAcore analysis. […] This was confirmed by BIAcore analysis (FIG. 10B).
# The biotinylated control peptide (SEQ ID NO:10) was immobilized onto one flow cell of a SA-5 (streptavidin coated) sensor chip to a final density of 700 RU. On a second flow cell, either hGH (1100 RU final density), H5WT peptide (SEQ ID NO:8; 1100 RU final density), or bGH (730 RU final density) was immobilized. GHBP (either rat or humanized) was injected at a concentration of 500 μg/ml with a flow rate of 5 μl/min. Background binding to the control surface was subtracted prior to further analysis.
# rGHBP = target: T2, rGHBP (Rattus norvegicus, UniProt P16310); experiment: Time-resolved fluorometric detection (TRFD) of specific bLigand binding to rGHBP and its competition; details: TRFD
# T2 construct: 1–48 of GHBP; The 3′ oligo used for this reaction encoded the mutation L43R (CTG→AGA); The second PCR reaction amplified the DNA encoding amino acids 38–260; 6xHis; made in house
# T2 sequence (P16310 19-278 isoform P16310-2): T1 sequence (P16310 19-278 isoform P16310-2 L61R) with R43L
# Procedure: For this invention, saEu forms a ternary complex with bP and rGHBP (i.e., the rGHBP:bP:saEu complex). As described herein, the TRFD assay is performed using biotinylated GH (bGH) as bLigand. Biotinylated H5-mutant peptides bP#447 (SEQ ID NO:11) and bP#418 (SEQ ID NO:12) are also used as bLigand (see below). The TRFD assay described herein faithfully reports the competition of ligand binding to the active site of rGHR. To perform the TRFD assays, soluble rGHBP is attached to the surface of microtiter wells, then incubated with bP. Unbound bP is than washed away and (sa)Eu is added to complex with receptor bound bP. The rGHBP:bP bound (sa)Eu is then converted into its highly fluorescent state and detected by TRFD.
# Wells were coated with rGHBP(100 ng/well) overnight as described. ED50 and IC50 were calculated from analysis of specific bLigand binding to rGHBP. Competitors were added 1 hr prior to addition of bLigand as described.
# rGHBP (50–200 μg/ml in 50 mM NaHCO3) was coated onto low-fluorescence MaxiSorp (Nunc) plates (100 μl/well) overnight at 4° C. The plates were blocked with PBS containing 2% non-fat milk and 0.05% BSA for 2 hr at room temperature, followed by three PBS washes. For competitions, serial dilutions of unlabelled growth hormone (0.1 nM-100 nM) or MAb 2C3 (0.67–67 nM) were added to the plates (100 μl/well) and incubated at room temperature for 1–2 hr. Biotinylated peptide or biotinylated GH (10× concentrations) were incubated in blocking buffer for 30 min to decrease non-specific binding. Ten microliters of the 10× concentrated material was added to the plates and incubated at room temperature for 1 hr to overnight.
# The plates were then washed five times with Tris-buffered saline (pH 7.5) containing 0.1% Tween-20 (TTBS). To each well, 100 μl of europium-labeled streptavidin in DELFIA assay buffer (100 mM Tris-HCl, pH 7.8; 150 mM NaCl; 0.5% BSA; 0.05% bovine Ig; 0.05% NaN3; 0.01% Tween-20) was added and incubated for 1.5 hr at room temperature. The plates were then washed five times with TTBS and tapped dry. Subsequently, 100 μl of DELFIA enhancement solution (100 mM acetone-potassium hydrogen phthalate, pH 3.2; 15 mM 2-naphtyltrifluoroacetate; […] tri(n-octyl)-phosphine oxide; 0.1% Triton X-100) was added to each well, and the plates were shaken for 10 min at room temperature. Fluorescence of each sample well was measured at 615 nm using a DELFIA 1234 fluorometer (EG&G Wallac). General procedure and references as described by Wallac are available in “Lanthanide labeling for time-resolved fluorometry”: Wallac publication 1244–1126-03.
structure (smiles),measurement,setting,value
CC(C)C[C@@H]1NC(=O)[C@H](CO)NC(=O)[C@H](CCC(N)=O)NC(=O)[C@@H](NC(=O)[C@H](CC(C)C)NC(=O)[C@H](CC(=O)O)NC(=O)[C@H](CCCCN)NC(=O)[C@H](Cc2ccc(O)cc2)NC(=O)[C@@H](N)CC(=O)O)CSSC[C@@H](C(=O)N[C@@H](C)C(=O)N[C@@H](CCCCN)C(=O)N[C@@H](CCCCN)C(=O)O)NC(=O)[C@H](Cc2c[nH]c3ccccc23)NC(=O)CNC(=O)[C@H](C)NC(=O)[C@H](CC(C)C)NC(=O)[C@H](Cc2c[nH]c3ccccc23)NC(=O)CNC(=O)[C@@H]2CCCN2C(=O)[C@H](Cc2ccc(O)cc2)NC(=O)[C@H]([C@@H](C)O)NC(=O)[C@H](C(C)C)NC(=O)CNC1=O [H5] (H-DYKDLCQSLGVTYPGWLAGWCAKK-OH; disulfide 6-21; N-terminus and C-terminus assumed),binding to ‘hu’ GHBP,‘hu’ GHBP,not ‘hu’GHBP
same,saturation of receptors,rGHBP,could not be saturated
